Assay in all cases: competitive isoTOP-ABPP
Type in all cases: binding

Assay [1] addresses T1, DYNC1H1 Cytoplasmic dynein 1 heavy chain 1 (Homo sapiens, UniProt Q14204).
T1 construct: isoTOP-ABPP experiments performed in cell lysates (in vitro); endogenous in cells; host or cells: soluble proteome of human cancer cell lines (MDA-MB-231, Ramos, Jurkat)
As to conditions: for isoTOP-ABPP ratio (R) at liganded lysine Q14204_K1649: 50 uM, in vitro, sol, 231. In outline: (§1)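 Here, isoTOP-ABPP measures loss of STP-alkyne labeling at individual lysines after fragment exposure in lysate. Activated esters are dosed at 50 μM, guanidinylating agents at 100 μM; the probe follows at 0.1 mM for 1 h. R ≥4 marks a liganded lysine.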

Assay [2] has as its target T2, HNRNPK Heterogeneous nuclear ribonucleoprotein K (Homo sapiens, UniProt P61978).
T2 construct: isoTOP-ABPP experiments performed in cell lysates (in vitro); endogenous in cells; host or cells: soluble proteome of human cancer cell lines (MDA-MB-231, Ramos, Jurkat)
The settings on record: for isoTOP-ABPP ratio (R) at liganded lysine P61978_K405: 50 uM, in vitro, sol, 231. In outline:
as §1

In assay [3] the target is T3, MAP2K3 Dual specificity mitogen-activated protein kinase (Homo sapiens, UniProt P46734).
T3 construct: isoTOP-ABPP experiments performed in cell lysates (in vitro); endogenous in cells; host or cells: soluble proteome of human cancer cell lines (MDA-MB-231; Ramos and Jurkat also prepared)
T3 sequence (P46734 1-347): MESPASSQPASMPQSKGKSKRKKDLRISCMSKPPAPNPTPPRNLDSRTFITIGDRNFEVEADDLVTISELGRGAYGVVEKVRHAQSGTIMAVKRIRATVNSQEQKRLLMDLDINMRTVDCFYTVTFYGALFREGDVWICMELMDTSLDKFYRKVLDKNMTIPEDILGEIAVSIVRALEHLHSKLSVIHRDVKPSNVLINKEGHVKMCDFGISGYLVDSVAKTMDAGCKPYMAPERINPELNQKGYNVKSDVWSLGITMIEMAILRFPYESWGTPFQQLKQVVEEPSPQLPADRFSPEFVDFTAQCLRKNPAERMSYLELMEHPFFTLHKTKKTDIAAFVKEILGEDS
The settings on record: for isoTOP-ABPP ratio (R) at liganded lysine P46734_K93: 50 uM, in vitro, sol, 231. The method in brief:
as §1

The target of assay [4] is T4, MRPS24 28S ribosomal protein S24, mitochondrial (Homo sapiens, UniProt Q96EL2).
T4 construct: isoTOP-ABPP experiments performed in cell lysates (in vitro); endogenous in cells; host or cells: soluble proteome of human cancer cell lines (MDA-MB-231; Ramos and Jurkat also prepared)
The settings on record: for isoTOP-ABPP ratio (R) at liganded lysine Q96EL2_K94: 50 uM, in vitro, sol, 231. The method in brief:
as §1

The target of assay [5] is T5, RPL10 60S ribosomal protein L10 (Homo sapiens, UniProt P27635).
T5 construct: isoTOP-ABPP experiments performed in cell lysates (in vitro); endogenous in cells; host or cells: soluble proteome of human cancer cell lines (MDA-MB-231; Ramos and Jurkat also prepared)
As to conditions: for isoTOP-ABPP ratio (R) at liganded lysine P27635_K121: 50 uM, in vitro, sol, 231. In outline:
as §1

Assay [6] deals with T6, MTOR Serine/threonine-protein kinase mTOR (Homo sapiens, UniProt P42345).
T6 construct: isoTOP-ABPP experiments performed in cell lysates (in vitro); endogenous in cells; host or cells: soluble proteome of human cancer cell lines (MDA-MB-231; Ramos and Jurkat also prepared)
In outline: as §1

Each structure is given as a SMILES string.

T1 sequence (Q14204 whole entry): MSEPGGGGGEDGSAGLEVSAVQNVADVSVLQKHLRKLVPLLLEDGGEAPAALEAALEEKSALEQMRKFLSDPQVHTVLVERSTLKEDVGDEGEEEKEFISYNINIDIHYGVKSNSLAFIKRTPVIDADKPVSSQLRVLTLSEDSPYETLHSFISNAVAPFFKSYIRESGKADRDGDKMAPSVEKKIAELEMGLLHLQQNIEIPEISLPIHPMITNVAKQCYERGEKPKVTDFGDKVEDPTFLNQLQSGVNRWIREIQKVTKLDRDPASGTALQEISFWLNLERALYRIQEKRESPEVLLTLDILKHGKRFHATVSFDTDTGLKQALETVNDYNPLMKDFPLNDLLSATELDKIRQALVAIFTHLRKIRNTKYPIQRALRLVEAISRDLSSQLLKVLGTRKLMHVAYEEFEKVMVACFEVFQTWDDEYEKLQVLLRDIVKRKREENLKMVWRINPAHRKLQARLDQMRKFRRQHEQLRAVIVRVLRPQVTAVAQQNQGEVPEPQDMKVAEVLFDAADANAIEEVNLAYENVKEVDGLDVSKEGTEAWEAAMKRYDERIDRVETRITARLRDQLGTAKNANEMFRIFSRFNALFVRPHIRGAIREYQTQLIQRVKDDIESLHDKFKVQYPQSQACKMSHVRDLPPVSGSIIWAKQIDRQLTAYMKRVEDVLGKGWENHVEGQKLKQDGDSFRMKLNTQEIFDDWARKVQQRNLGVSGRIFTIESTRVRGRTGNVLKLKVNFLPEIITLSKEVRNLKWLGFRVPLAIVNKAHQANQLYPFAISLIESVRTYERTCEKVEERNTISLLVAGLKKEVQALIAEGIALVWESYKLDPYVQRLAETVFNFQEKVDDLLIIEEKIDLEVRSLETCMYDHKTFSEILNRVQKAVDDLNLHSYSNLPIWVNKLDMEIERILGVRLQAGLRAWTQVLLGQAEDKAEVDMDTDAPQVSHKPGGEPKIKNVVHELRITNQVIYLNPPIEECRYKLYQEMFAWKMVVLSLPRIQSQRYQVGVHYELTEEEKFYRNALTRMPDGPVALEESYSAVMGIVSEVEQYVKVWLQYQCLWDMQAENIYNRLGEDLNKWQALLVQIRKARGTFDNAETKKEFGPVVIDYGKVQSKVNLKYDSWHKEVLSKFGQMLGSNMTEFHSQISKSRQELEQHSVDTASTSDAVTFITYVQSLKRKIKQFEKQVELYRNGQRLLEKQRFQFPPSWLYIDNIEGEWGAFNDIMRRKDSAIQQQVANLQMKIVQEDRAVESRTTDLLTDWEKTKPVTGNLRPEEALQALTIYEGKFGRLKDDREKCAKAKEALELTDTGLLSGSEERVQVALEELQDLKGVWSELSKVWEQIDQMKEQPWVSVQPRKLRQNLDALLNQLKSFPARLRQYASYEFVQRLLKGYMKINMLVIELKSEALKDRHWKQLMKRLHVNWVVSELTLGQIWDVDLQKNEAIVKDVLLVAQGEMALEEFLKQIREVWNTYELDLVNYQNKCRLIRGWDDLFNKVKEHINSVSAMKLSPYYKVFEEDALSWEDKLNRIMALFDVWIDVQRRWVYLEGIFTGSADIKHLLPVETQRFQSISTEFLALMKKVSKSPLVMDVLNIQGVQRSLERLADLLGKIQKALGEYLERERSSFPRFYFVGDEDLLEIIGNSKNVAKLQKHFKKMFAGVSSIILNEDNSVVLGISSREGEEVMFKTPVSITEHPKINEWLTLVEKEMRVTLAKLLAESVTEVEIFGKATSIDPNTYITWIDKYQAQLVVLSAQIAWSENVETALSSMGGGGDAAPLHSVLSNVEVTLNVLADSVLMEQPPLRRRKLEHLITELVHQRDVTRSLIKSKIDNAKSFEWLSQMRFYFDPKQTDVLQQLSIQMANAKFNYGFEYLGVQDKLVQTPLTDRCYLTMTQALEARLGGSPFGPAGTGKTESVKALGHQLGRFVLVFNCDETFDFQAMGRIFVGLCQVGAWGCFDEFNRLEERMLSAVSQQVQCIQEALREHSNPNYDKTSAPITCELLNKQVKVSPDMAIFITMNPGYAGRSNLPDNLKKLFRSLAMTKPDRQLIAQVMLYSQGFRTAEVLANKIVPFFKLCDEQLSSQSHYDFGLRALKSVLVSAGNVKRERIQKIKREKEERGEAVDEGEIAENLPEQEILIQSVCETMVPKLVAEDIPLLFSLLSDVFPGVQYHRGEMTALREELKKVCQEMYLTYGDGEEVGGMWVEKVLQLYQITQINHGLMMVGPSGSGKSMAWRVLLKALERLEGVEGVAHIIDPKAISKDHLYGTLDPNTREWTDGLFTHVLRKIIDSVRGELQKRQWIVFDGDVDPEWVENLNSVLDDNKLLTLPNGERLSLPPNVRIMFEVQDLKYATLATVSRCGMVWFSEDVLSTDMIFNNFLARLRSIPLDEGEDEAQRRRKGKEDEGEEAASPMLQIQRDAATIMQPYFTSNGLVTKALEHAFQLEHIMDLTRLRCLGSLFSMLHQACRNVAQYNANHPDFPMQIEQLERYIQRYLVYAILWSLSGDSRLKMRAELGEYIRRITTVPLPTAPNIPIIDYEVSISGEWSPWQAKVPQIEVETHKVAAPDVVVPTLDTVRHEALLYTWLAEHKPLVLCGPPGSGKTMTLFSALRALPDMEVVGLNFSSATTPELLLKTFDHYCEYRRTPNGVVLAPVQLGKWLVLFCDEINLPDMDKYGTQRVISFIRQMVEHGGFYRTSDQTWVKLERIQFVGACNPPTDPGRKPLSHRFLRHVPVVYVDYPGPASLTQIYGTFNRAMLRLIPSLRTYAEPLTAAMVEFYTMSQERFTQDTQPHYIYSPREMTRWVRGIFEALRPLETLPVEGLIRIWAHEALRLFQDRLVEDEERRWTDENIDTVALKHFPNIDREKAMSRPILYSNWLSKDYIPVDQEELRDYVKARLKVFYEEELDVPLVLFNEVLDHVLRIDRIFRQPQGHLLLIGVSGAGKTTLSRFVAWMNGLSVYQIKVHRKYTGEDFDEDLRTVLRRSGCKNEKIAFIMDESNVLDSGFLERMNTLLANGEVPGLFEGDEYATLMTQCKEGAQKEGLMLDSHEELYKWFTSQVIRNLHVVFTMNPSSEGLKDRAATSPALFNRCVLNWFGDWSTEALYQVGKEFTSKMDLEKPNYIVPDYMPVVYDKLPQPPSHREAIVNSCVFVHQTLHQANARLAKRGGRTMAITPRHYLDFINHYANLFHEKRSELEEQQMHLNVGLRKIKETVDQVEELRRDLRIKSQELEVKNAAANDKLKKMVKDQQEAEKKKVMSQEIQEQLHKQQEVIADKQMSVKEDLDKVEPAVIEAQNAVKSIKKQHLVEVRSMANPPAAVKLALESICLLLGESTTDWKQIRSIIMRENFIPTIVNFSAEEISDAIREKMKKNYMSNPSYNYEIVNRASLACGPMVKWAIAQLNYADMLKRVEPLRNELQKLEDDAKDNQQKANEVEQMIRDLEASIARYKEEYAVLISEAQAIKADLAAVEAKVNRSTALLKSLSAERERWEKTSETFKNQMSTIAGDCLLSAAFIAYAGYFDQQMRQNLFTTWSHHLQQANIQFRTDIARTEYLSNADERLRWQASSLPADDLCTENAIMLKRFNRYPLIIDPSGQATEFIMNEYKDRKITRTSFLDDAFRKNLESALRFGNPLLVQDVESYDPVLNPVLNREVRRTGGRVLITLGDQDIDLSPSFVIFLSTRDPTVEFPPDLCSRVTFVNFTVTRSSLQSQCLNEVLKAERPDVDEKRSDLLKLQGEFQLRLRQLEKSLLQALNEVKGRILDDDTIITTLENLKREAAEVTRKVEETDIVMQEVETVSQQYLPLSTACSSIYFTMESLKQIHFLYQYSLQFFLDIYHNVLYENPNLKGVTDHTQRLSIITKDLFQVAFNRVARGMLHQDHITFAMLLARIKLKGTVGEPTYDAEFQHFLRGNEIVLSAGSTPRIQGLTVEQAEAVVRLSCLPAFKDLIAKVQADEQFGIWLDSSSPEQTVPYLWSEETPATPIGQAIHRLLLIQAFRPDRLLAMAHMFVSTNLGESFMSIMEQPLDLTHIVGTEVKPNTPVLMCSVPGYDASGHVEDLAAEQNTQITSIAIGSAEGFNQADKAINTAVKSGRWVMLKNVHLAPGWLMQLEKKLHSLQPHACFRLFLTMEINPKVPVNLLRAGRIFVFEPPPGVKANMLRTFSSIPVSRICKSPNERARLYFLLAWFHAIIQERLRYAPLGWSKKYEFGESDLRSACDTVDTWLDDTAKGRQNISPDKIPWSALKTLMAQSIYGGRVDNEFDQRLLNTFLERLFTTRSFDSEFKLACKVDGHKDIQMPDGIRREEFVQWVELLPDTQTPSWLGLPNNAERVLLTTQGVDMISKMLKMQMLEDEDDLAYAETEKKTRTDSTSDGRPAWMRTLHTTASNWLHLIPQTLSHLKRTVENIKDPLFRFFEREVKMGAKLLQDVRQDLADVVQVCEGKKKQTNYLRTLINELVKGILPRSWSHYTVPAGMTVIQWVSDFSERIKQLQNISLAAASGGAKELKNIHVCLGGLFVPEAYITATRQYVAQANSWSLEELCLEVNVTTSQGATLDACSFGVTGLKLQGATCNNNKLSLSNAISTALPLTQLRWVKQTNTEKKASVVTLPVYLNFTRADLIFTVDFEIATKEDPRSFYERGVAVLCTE

Take `O=C(Oc1ccc([N+](=O)[O-])cc1[N+](=O)[O-])c1ccc(Oc2ccccc2)cc1` [fragment 39, 2,4-Dinitrophenyl 4-phenoxybenzoate]: the “isoTOP-ABPP ratio (R) at liganded lysine Q14204_K1649” value in assay [1] was 1.0. Moreover, the “isoTOP-ABPP ratio (R) at liganded lysine P61978_K405” value in assay [2] was determined as 0.8. Besides, the “isoTOP-ABPP ratio (R) at liganded lysine P46734_K93” value in assay [3] turned out to be 0.8. Also, the “isoTOP-ABPP ratio (R) at liganded lysine Q96EL2_K94” value in assay [4] is listed as 1.2. Moreover, the “isoTOP-ABPP ratio (R) at liganded lysine P27635_K121” value in assay [5] stood at 1.0.

For the compound `CC(C)(C)OC(=O)NCCCC(=O)Oc1ccc([N+](=O)[O-])cc1[N+](=O)[O-]` [fragment 41, 2,4-Dinitrophenyl 4-((tert-butoxycarbonyl)amino)butanoate], the “isoTOP-ABPP ratio (R) at liganded lysine Q14204_K1649” value in assay [1] is listed as 1.0. Further, the “isoTOP-ABPP ratio (R) at liganded lysine P61978_K405” value in assay [2] was found to be 1.0. Further, the “isoTOP-ABPP ratio (R) at liganded lysine P46734_K93” value in assay [3] came out at 0.9. Moreover, the “isoTOP-ABPP ratio (R) at liganded lysine Q96EL2_K94” value in assay [4] worked out at 1.3. The “isoTOP-ABPP ratio (R) at liganded lysine P27635_K121” value in assay [5] is 0.8.

`CC(=O)Oc1ccc([N+](=O)[O-])cc1[N+](=O)[O-]` [fragment 43, 2,4-Dinitrophenyl acetate]: in assay [1], the “isoTOP-ABPP ratio (R) at liganded lysine Q14204_K1649” value is recorded as 0.9. For the same compound, the “isoTOP-ABPP ratio (R) at liganded lysine P61978_K405” value in assay [2] is given as 1.3. Also, the “isoTOP-ABPP ratio (R) at liganded lysine P46734_K93” value in assay [3] was determined as 1.0. Besides, the “isoTOP-ABPP ratio (R) at liganded lysine Q96EL2_K94” value in assay [4] came to 1.1. For the same compound, in assay [6] (50 uM, in vitro, sol, 231), the “isoTOP-ABPP ratio (R) at liganded lysine P42345_K2066” value is given as 1.6. Besides, the “isoTOP-ABPP ratio (R) at liganded lysine P27635_K121” value in assay [5] stood at 20.0.

Take `N#Cc1ccc(C(=O)Oc2ccc([N+](=O)[O-])cc2[N+](=O)[O-])cc1` [fragment 44, 2,4-Dinitrophenyl 4-cyanobenzoate]: the “isoTOP-ABPP ratio, lysine Q14204_K1649” value in assay [1] (50 uM_231_sol_in vitro) is reported as 1.3. The “isoTOP-ABPP ratio, lysine P61978_K405” value in assay [2] (50 uM_231_sol_in vitro) is given as 1.0. In addition, the “isoTOP-ABPP ratio, lysine P46734_K93” value in assay [3] (50 uM_231_sol_in vitro) worked out at 0.8. Further, the “isoTOP-ABPP ratio, lysine Q96EL2_K94” value in assay [4] (50 uM_231_sol_in vitro) is given as 1.1. In assay [6] (50 uM_231_sol_in vitro), the “isoTOP-ABPP ratio, lysine P42345_K2066” value was determined as 1.7. Also, the “isoTOP-ABPP ratio, lysine P27635_K121” value in assay [5] (50 uM_231_sol_in vitro) came to 0.6.

Turning to `O=C(CCc1ccc2c(c1)OCO2)Oc1ccc([N+](=O)[O-])cc1[N+](=O)[O-]` [fragment 45, 2,4-Dinitrophenyl 3-(benzo[d][1,3]dioxol-5-yl)propanoate], the “isoTOP-ABPP ratio, lysine Q14204_K1649” value in assay [1] (50 uM_231_sol_in vitro) is 1.0. The “isoTOP-ABPP ratio, lysine P61978_K405” value in assay [2] (50 uM_231_sol_in vitro) was 1.1. Moreover, the “isoTOP-ABPP ratio, lysine P46734_K93” value in assay [3] (50 uM_231_sol_in vitro) was found to be 0.9. Besides, in assay [6] (50 uM_231_sol_in vitro), the “isoTOP-ABPP ratio, lysine P42345_K2066” value was 1.1. In addition, the “isoTOP-ABPP ratio, lysine P27635_K121” value in assay [5] (50 uM_231_sol_in vitro) is 1.8.

With `O=C(ON1C(=O)CCC1=O)c1cc(C(F)(F)F)cc(C(F)(F)F)c1` [fragment 46, 3,5-Bis(trifluoromethyl)benzoic acid NHS ester], in assay [1] (50 uM_231_sol_in vitro), the “isoTOP-ABPP ratio, lysine Q14204_K1649” value is listed as 1.3. The “isoTOP-ABPP ratio, lysine P61978_K405” value in assay [2] (50 uM_231_sol_in vitro) is recorded as 1.1. In assay [3] (50 uM_231_sol_in vitro), the “isoTOP-ABPP ratio, lysine P46734_K93” value came to 1.3. The “isoTOP-ABPP ratio, lysine Q96EL2_K94” value in assay [4] (50 uM_231_sol_in vitro) was found to be 1.0. In assay [6] (50 uM_231_sol_in vitro), the “isoTOP-ABPP ratio, lysine P42345_K2066” value is reported as 1.5. For the same compound, the “isoTOP-ABPP ratio, lysine P27635_K121” value in assay [5] (50 uM_231_sol_in vitro) was 0.8.

Consider `CC(C)(C)OC(=O)N=C(NC(=O)OC(C)(C)C)n1cccn1` [fragment 50, reference compound], for which the “isoTOP-ABPP ratio, lysine Q14204_K1649” value in assay [1] (100 uM_231_sol_in vitro) is recorded as 1.3. In assay [2] (100 uM_231_sol_in vitro), the “isoTOP-ABPP ratio, lysine P61978_K405” value turned out to be 1.3. In addition, the “isoTOP-ABPP ratio, lysine P46734_K93” value in assay [3] (100 uM_231_sol_in vitro) stood at 1.8. Besides, the “isoTOP-ABPP ratio, lysine Q96EL2_K94” value in assay [4] (100 uM_231_sol_in vitro) is given as 2.2. The “isoTOP-ABPP ratio, lysine P42345_K2066” value in assay [6] (100 uM_231_sol_in vitro) was found to be 1.4. For the same compound, in assay [5] (100 uM_231_sol_in vitro), the “isoTOP-ABPP ratio, lysine P27635_K121” value came to 1.0.

Values taken from US20210255193A1, “LYSINE REACTIVE PROBES AND USES THEREOF” (The Scripps Research Institute, priority 2017, published 2021).
